Test results taken from US20210338652A1, “COMPOSITION AND USE FOR THE TREATMENT OF PARKINSON'S DISEASE AND RELATED DISORDERS” (CHASE THERAPEUTICS CORPORATION, priority 2018, published 2021).
Like-named read-outs stand apart in the source and are kept apart here.

Columns and labels:
[1] = tested on: humans; settings: for Maximal Tolerated Dose (MTD): oral pramipexole escalation to max 6 mg, ondansetron 8 mg or aprepitant 80 mg where combined
[2] = in vivo; cited from earlier work

| Structure (SMILES) | dose limiting toxicity ([1]; both, human, in vivo) | Maximal Tolerated Dose (MTD) ([1]; subject 1001) [mg] | Maximal Tolerated Dose (MTD) ([1]; subject 1006) [mg] | Maximal Tolerated Dose (MTD) ([1]; subject 1007) [mg] | Maximal Tolerated Dose (MTD) ([1]; subject 1008) [mg] | plasma half-life [2] |
| --- | --- | --- | --- | --- | --- | --- |
| CCCN[C@H]1CCc2nc(N)sc2C1 [Pramipexole, (S)-6-propylamino-4,5,6,7-tetrahydro-1,3-benzothiazole-2-amine] | gastro-intestinal adverse event in all 4 subjects | 2.0 | <0.5 | 4.0 | 1.0 | – |
| C=CCN1C[C@H](C(=O)N(CCCN(C)C)C(=O)NCC)C[C@@H]2c3cccc4[nH]cc(c34)C[C@H]21 [cabergoline, (6aR,9R,10aR)—N-[3-(dimethylamino)propyl]-N-(ethylcarbamoyl)-7-prop-2-enyl-6,6a,8,9,10,10a-hexahydro-4H-indolo[4,3-fg]quinoline-9-carboxamide] | – | – | – | – | – | about 65 hours |
